Starred links: 1 amine or outer side, 2 acyl side, 3 side chain; linkers in the order of their positions; H or OH if unused. Residues, ends and D or L forms follow the SMILES beside them. Groups on a side chain read outwards from the residue. *: point of attachment. Morpholide = C1CN(*)CCO1; Cbz = O=C(OCc1ccccc1)*; CO = O=C([*:1])[*:2]
Target: T1, integrin VLA-4, expressed on the Jurkat J6 (human lymphoblast cell line) cell membrane with VCAM-1 (Homo sapiens, UniProt P05556+P13612)
T1 construct: integrin VLA-4, expressed on the Jurkat J6 (human lymphoblast cell line) cell membrane; endogenous in cells; host or cells: Jurkat J6 cells (integrin). zzVCAM-1 was made in house in Drosophila melanogaster S2 cells
Experiment: Jurkat J6/VCAM-1 adhesion assay
Assay type: cell-based
Conditions: Jurkat J6 cell adhesion to VCAM-1, 1 mM MnCl2; mean of n experiments
Experimental: (1) Jurkat J6/VCAM-1 Adhesion Assay
This assay was used to investigate the interaction of the integrin VLA-4, expressed on the Jurkat J6 (human lymphoblast cell line) cell membrane with VCAM-1. Polystyrene 96-well microtitre plates were coated with human immunoglobulin G (IgG; Sigma Chemicals, UK, Product No. 14506) at a concentration of 0.05 mg ml^−1 in bicarbonate buffer (36 mM NaHCO3 and 22 mM Na2CO3, prepared in Dulbecco's phosphate buffered saline at pH 9.8 (PBS); Sigma Chemicals, UK, Product No. 14190-094) for 2 hours at 37° C. This solution was then aspirated and the plates were washed twice with PBS.
VCAM-1 was prepared by cloning its constituent seven domains into a Drosophila expression system with a zz (Protein A) tag. This zzVCAM-1 was then expressed from Drosophila melanogaster S2 cell culture, induced with copper. Protease inhibitors were added and the culture supernatant was clarified either by filtration through a 0.2 μm filter or by centrifugation. The zzVCAM-1 was then purified from this clarified medium using an IgG agarose column, equilibrated with either 20 mM sodium phosphate pH 7.2 alone or in the presence of 0.5M sodium chloride. Elution of zzVCAM-1 from the column was mediated using 3M ammonium thiocyanate, which was subsequently removed using a G25 desalting column, equilibrated with 20 mM sodium phosphate, pH 7.2. The purified zzVCAM-1 was then concentrated to a small volume (Amicon stirred cell concentrators) until a concentration of 62.5 ng ml^−1 was obtained, calculated using the extinction coefficient value.
This solution of zzVCAM-1 was then incubated overnight at 4° C. in the IgG coated microtitre plates with 3% bovine serum albumin (BSA) in PBS, followed by aspiration and two further washes with PBS. A concentration of the Jurkat J6 cells (6×10^6 cels ml^−1), grown in cell media RPMI 1640 (HyClone Ltd, Product No. B-9106-L) supplemented with 10% heat inactivated fetal calf serum (FCS; Gibco BRL, Product No. 10099-075) and 2 mM L-glutamine, were labelled with 10 μM of the fluorescent dye, 2′, 7′-bis(2-carboxyethyl)-5-(e6)-carboxyfluorescein acetoxymethyl ester (BCECF-AM; Molecular Probes Inc, Product No. B-1150) at 37° C. for 10 minutes. The excess dye was then removed by centrifugation at 500×g for 5 minutes and the cells were resuspended at a concentration of 1.2×10^7 cells ml^−1 in Hank's balanced salt solution (HBSS; Gibco BRL, Product No. 14190-094).
Equal volumes of compounds (dissolved in an appropriate solvent and diluted in HBSS containing 1 mM MnCl2) and the labelled Jurkat J6 cells, were added to the VCAM-1 coated plates and adhesion was allowed to proceed for 30 minutes at 37° C. Non, or loosely adhered cells, were removed by inversion of the plate and blotted with tissue paper. Two washes with PBS and further blotting were then performed, before the addition of 2% detergent (Triton-X®; Sigma Chemicals UK, Product No. X100). Counting was undertaken in a Wallac Viktor™ Fluorimeter, where low fluorescence values were indicative of compounds which had inhibited adhesion. All samples were assayed in singlicate and the following four parameter curve fit, shown by Equation (I) was applied: [formula]
Where a is the minimum, b is the Hill slope, c is the IC50 and d is the maximum. (Maximum and minimum values are those compared to adhesion in the absence of compound and in the presence of the dipotassium salt of 2 mM EDTA; Sigma Chemicals, UK, Product No. ED2P). Data is presented as the mean pIC50 with the standard error of the mean of n experiments.

T1 sequence (P13612 34-1032): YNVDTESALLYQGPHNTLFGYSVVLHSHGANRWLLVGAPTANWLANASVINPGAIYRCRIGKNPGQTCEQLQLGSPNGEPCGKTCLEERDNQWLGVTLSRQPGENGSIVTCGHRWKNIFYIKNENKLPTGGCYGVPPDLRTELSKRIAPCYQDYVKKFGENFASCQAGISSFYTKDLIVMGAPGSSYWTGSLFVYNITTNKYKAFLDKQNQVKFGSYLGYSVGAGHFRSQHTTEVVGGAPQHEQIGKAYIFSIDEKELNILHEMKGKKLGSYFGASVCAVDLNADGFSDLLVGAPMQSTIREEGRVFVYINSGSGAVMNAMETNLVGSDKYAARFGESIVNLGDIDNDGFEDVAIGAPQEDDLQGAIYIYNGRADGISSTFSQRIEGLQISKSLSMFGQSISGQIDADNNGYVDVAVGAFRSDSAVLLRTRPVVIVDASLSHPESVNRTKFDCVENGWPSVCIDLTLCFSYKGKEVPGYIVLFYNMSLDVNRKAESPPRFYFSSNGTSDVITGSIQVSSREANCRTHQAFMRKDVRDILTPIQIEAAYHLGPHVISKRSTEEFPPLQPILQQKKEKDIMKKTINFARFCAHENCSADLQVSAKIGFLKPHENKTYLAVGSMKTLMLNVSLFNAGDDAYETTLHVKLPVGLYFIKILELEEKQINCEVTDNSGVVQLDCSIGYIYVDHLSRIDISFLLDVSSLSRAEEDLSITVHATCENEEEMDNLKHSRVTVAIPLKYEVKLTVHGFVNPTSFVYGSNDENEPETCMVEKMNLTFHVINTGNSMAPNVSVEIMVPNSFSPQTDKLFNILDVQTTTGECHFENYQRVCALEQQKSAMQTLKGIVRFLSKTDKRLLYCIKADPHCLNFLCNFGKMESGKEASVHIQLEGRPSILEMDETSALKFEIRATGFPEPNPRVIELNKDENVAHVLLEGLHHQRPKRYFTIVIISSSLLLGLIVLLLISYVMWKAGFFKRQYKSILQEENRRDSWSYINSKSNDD
T1 sequence (P05556 21-798): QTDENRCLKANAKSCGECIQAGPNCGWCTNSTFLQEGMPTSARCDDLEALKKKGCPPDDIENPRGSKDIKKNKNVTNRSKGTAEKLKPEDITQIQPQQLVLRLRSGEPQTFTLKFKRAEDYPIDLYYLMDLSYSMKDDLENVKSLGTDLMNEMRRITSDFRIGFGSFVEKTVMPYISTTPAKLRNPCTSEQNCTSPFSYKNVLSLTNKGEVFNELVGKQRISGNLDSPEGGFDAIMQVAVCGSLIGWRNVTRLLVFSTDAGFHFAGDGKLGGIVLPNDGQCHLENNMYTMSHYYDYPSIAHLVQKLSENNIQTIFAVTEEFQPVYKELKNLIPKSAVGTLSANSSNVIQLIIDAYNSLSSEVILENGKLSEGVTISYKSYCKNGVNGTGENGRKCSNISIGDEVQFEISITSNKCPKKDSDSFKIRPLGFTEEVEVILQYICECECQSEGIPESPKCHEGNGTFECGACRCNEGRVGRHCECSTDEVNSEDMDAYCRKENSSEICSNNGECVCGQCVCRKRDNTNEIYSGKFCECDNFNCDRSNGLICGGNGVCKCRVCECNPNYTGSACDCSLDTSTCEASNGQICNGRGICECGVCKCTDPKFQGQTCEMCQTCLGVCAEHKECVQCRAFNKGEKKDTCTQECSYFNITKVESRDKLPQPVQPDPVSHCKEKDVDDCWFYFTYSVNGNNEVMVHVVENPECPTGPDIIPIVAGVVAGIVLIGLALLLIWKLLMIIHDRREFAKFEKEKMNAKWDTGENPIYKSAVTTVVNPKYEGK

## Cc1ccccc1OCC(=O)N[C@@H](CC(C)C)C(=O)N[C@@H](Cc1ccc(OC(=O)N2CCOCC2)cc1)C(=O)O [Example 25, (2S)-2-[((2S)-4-Methyl-2-{[2-(2-methylphenoxy)acetyl]amino}pentanoyl)amino]-3-{4-[(4-morpholinylcarbonyl)oxy]phenyl}propanoic acid]
  IC50: 3.16 nM

## CC(C)C[C@H](NC(=O)COc1ccccc1I)C(=O)N[C@@H](Cc1ccc(OC(=O)N2CCC(C(N)=O)CC2)cc1)C(=O)O [Example 26, (2S)-3-[4-({[4-(Aminocarbonyl)-1-piperidinyl]carbonyl}oxy)phenyl]-2-[((2S)-2-{[2-(2-iodophenoxy)acetyl]amino}-4-methylpentanoyl)amino]propanoic acid]
  IC50: 2.95 nM

## CC(C)C[C@H](NC(=O)COc1ccccc1C(C)(C)C)C(=O)N[C@@H](Cc1ccc(OC(=O)N2CCC(C(=O)N3CCCCC3)CC2)cc1)C(=O)O [Example 29, (2S)-2-{[(2S)-2-({2-[2-(Tert-butyl)phenoxy]acetyl}amino)-4-methylpentanoyl]amino}-3-[4-({[4-(1-piperidinylcarbonyl)-1-piperidinyl]carbonyl}oxy)phenyl]propanoic acid]
  IC50: 16.2 nM

## Cc1ccccc1OCC(=O)N[C@@H](CC(C)C)C(=O)N[C@@H](Cc1ccc(OC(=O)N2CCC(C(=O)N3CCCCC3)CC2)cc1)C(=O)O [Example 30, (2S)-2-[((2S)-4-Methyl-2-{[2-(2-methylphenoxy)acetyl]amino}pentanoyl)amino]-3-[4-({[4-(1-piperidinylcarbonyl)-1-piperidinyl]carbonyl}oxy)phenyl]propanoic acid]
  IC50: 5.75 nM

## CC(C)C[C@H](NC(=O)c1cccc2c1oc1ccccc12)C(=O)N[C@@H](Cc1ccc(OC(=O)N2CCC(C(=O)N3CCCCC3)CC2)cc1)C(=O)O [Example 31, (2S)-2-({(2S)-2-[(Dibenzo[b,d]furan-4-ylcarbonyl)amino]-4-methylpentanoyl}amino)-3-[4-({[4-(1-piperidinylcarbonyl)-1-piperidinyl]carbonyl}oxy)phenyl]propanoic acid]
  IC50: 25.7 nM

## CC(C)C[C@H](NC(=O)COc1ccc2ccccc2c1Br)C(=O)N[C@@H](Cc1ccc(OC(=O)N2CCC(C(=O)N3CCCCC3)CC2)cc1)C(=O)O [Example 32, (2S)-2-{[(2S)-2-({2-[(1-Bromo-2-naphthyl)oxy]acetyl}amino)-4-methylpentanoyl]amino}-3-[4-({[4-(1-piperidinylcarbonyl)-1-piperidinyl]carbonyl}oxy)phenyl]propanoic acid]
  IC50: 24 nM

## CC(C)C[C@H](NC(=O)COc1ccccc1C(C)(C)C)C(=O)N[C@@H](Cc1ccc(OC(=O)N2CCC(C(N)=O)CC2)cc1)C(=O)O [Example 33, (2S)-3-[4-({[4-(Aminocarbonyl)-1-piperidinyl]carbonyl}oxy)phenyl]-2-{[(2S)-2-({2-[2-(tert-butyl)phenoxy]acetyl}amino)-4-methylpentanoyl]amino}propanoic acid]
  IC50: 3.47 nM

## CC(C)C[C@H](NC(=O)COc1ccccc1C(C)(C)C)C(=O)N[C@@H](Cc1ccc(OC(=O)N2CCC(C(=O)NCc3ccc(F)cc3)CC2)cc1)C(=O)O [Example 34, (2S)-2-{[(2S)-2-({2-[2-(Tert-butyl)phenoxy]acetyl}amino)-4-methylpentanoyl]amino}-3-(4-{[(4-{[(4-fluorobenzyl)amino]carbonyl}-1-piperidinyl)carbonyl]oxy}phenyl)propanoic acid]
  IC50: 26.9 nM

## CC(C)C[C@H](NC(=O)COc1ccc(Cl)cc1Cl)C(=O)N[C@@H](Cc1ccc(OC(=O)N2CCOCC2)cc1)C(=O)O [Example 35, (2S)-2-[((2S)-2-{[2-(2,4-Dichlorophenoxy)acetyl]amino}-4-methylpentanoyl)amino]-3-{4-[(4-morpholinylcarbonyl)oxy]phenyl}propanoic acid]
  IC50: 6.61 nM

## CC(C)C[C@H](NC(=O)COc1ccccc1C(=O)c1ccccc1)C(=O)N[C@@H](Cc1ccc(OC(=O)N2CCOCC2)cc1)C(=O)O [Example 36, (2S)-2-[((2S)-2-{[2-(2-Benzoylphenoxy)acetyl]amino}-4-methylpentanoyl)amino]-3-{4-[(4-morpholinylcarbonyl)oxy]phenyl}propanoic acid]
  IC50: 12.3 nM

## CCCc1ccccc1OCC(=O)N[C@@H](CC(C)C)C(=O)N[C@@H](Cc1ccc(OC(=O)N2CCOCC2)cc1)C(=O)O [Example 37, (2S)-2-[((2S)-4-Methyl-2-{[2-(2-propylphenoxy)acetyl]amino}pentanoyl)amino]-3-{4-[(4-morpholinylcarbonyl)oxy]phenyl}propanoic acid]
  IC50: 5.75 nM

## CC(C)C[C@H](NC(=O)COc1ccc2ccccc2c1Br)C(=O)N[C@@H](Cc1ccc(OC(=O)N2CCOCC2)cc1)C(=O)O [Example 38, (2S)-2-{[(2S)-2-({2-[(1-Bromo-2-naphthyl)oxy]acetyl}amino)-4-methylpentanoyl]amino}-3-{4-[(4-morpholinylcarbonyl)oxy]phenyl}propanoic acid]
  IC50: 15.5 nM

## CC(C)C[C@H](NC(=O)COc1ccccc1C1CCCCC1)C(=O)N[C@@H](Cc1ccc(OC(=O)N2CCOCC2)cc1)C(=O)O [Example 39, (2S)-2-[((2S)-2-{[2-(2-Cyclohexylphenoxy)acetyl]amino}-4-methylpentanoyl)amino]-3-{4-[(4-morpholinylcarbonyl)oxy]phenyl}propanoic acid]
  IC50: 22.4 nM

## CC(C)C[C@H](NC(=O)OCc1ccccc1)C(=O)N[C@@H](Cc1ccc(OC(=O)N2CCOCC2)cc1)C(=O)O [Example 40, (2S)-2-[((2S)-2-{[(Benzyloxy)carbonyl]amino}-4-methylpentanoyl)amino]-3-{4-[(4-morpholinylcarbonyl)oxy]phenyl}propanoic acid] (Cbz-Leu-Tyr([CO-Morpholide])-OH)
  IC50: 9.12 nM

## CC(C)C[C@H](NC(=O)COc1ccccc1I)C(=O)N[C@@H](Cc1ccc(OC(=O)N2CCN(C(=O)c3ccco3)CC2)cc1)C(=O)O [Example 41, (2S)-3-[4-({[4-(2-Furoyl)-1-piperazinyl]carbonyl}oxy)phenyl]-2-[((2S)-2-{[2-(2-iodophenoxy)acetyl]amino}-4-methylpentanoyl)amino]propanoic acid]
  IC50: 9.33 nM

## CC(C)C[C@H](NC(=O)COc1ccccc1C(C)(C)C)C(=O)N[C@@H](Cc1ccc(OC(=O)N2CCN(C(=O)c3ccco3)CC2)cc1)C(=O)O [Example 42, (2S)-2-{[(2S)-2-({2-[2-(Tert-butyl)phenoxy]acetyl}amino)-4-methylpentanoyl]amino}-3-[4-({[4-(2-furoyl)-1-piperazinyl]carbonyl}oxy)phenyl]propanoic acid]
  IC50: 11 nM

## CC(C)C[C@H](NC(=O)COc1ccccc1C1CCCCC1)C(=O)N[C@@H](Cc1ccc(OC(=O)N2CCN(C(=O)c3ccco3)CC2)cc1)C(=O)O [Example 43, (2S)-2-[((2S)-2-{[2-(2-Cycohexylphenoxy)acetyl]amino}-4-methylpentanoyl)amino]-3-[4-({[4-(2-furoyl)-1-piperazinyl]carbonyl}oxy)phenyl]propanoic acid]
  IC50: 22.4 nM

## CC(C)C[C@H](NC(=O)COc1ccc2ccccc2c1Br)C(=O)N[C@@H](Cc1ccc(OC(=O)N2CCN(C(=O)c3ccco3)CC2)cc1)C(=O)O [Example 44, (2S)-2-{[(2S)-2-({2-[(1-Bromo-2-naphthyl)oxy]acetyl}amino)-4-methylpentanoyl]amino}-3-[4-({[4-(2-furoyl)-1-piperazinyl]carbonyl}oxy)phenyl]propanoic acid]
  IC50: 24 nM
